In patent publication US20230280220A1, “Benzimidazole Derivative Compounds and Uses Thereof” (Pfizer Inc., priority 2019, published 2023):

Target: ITK enzyme (ITK FL, N-Flag and C-His tagged) (Homo sapiens (Human), UniProt Q08881)
Test: ITK enzyme assay (IL-2-inducible T-cell kinase activity)
Type: biochemical
Settings: geometric mean of count n
Method: IL-2-Inducible T-Cell Kinase (ITK) Activity, IC50 (nM)
ITK activity was determined by measuring the effect of a test compound in an ITK enzyme assay.
1.0 M HEPES Buffer pH 7.5 solution was prepared as follows: 238.3 g HEPES free acid (Sigma) and 800 mL of water were combined, and the mixture was stirred until complete dissolution. The pH was adjusted to 7.5 via titration with 5N NaOH and the volume adjusted to 1000 mL. The solution was filtered and sterilized.
ITK assay buffer was prepared as follows: 50 mL of HPLC-grade water was treated with 2 mL of 1.0 M HEPES Buffer, 500 μL of 2% Gelatin (Sigma), 1.0 mL of aqueous MgCl2 solution (1.0 M), and 1.0 mL of aqueous glutathione solution (0.5 M), and the solution was mixed. The solution was brought to 99 mL in a graduated cylinder by addition of water and sterilized through a 0.2 μm filter. 0.1 mL of Brij-35™ Surfact-Amps™ Detergent Solution (10% w/v aqueous solution, ThermoFisher) and 1.0 mL of ATP (Teknova, 100 mM) were added and the solution was mixed.
The resulting solution was stored on ice. 30 Minutes prior to use, the enzyme solution was removed from ice and equilibrated to RT by incubation in a RT water bath.
Preparation of 4×ITK substrate solution was as follows: 50 mL of ITK assay buffer was treated with 100 μL of BTK peptide (China Peptide Company, 2 mM stock solution in DMSO). The tube was capped, mixed by gently inverting the tube, and then stored on ice. 30 Minutes prior to use, the substrate solution was removed from ice and equilibrated to RT by incubation in a RT water bath.
At the time of assay, 7.5 μL of the 1.33×ITK enzyme solution was added to plate wells containing 0.1 μL of varying concentrations of test compound in DMSO. The plate was incubated 30 min at RT. The plate wells were each treated with 2.5 uL of the 4×ITK substrate solution and the plate was sealed (TopSeal™, Perkin Elmer). The plate was spun at 1000 rpm for 30 sec and then incubated for 60 min at RT. The seal was removed, and each well was treated with 10 μL of Stop/Detect Buffer (20 mM HEPES pH 7.5, 0.01% gelatin, 1 nM LANCE PT66 (Perkin Elmer), 16.5 μg/ml Surelight APC (Perkin Elmer), 10 mM EDTA, 250 mM NaCl). The plate was again covered and was spun at 1000 rpm for 30 seconds. The plate was allowed to incubate overnight at RT and in a closed carrier to reduce dehydration. The seal was removed, and the fluorescence was read with a plate reader with an excitation wavelength of […] and an emission wavelength of 615 nm.

Chain of ITK enzyme (ITK FL, N-Flag and C-His tagged) (Q08881 whole entry): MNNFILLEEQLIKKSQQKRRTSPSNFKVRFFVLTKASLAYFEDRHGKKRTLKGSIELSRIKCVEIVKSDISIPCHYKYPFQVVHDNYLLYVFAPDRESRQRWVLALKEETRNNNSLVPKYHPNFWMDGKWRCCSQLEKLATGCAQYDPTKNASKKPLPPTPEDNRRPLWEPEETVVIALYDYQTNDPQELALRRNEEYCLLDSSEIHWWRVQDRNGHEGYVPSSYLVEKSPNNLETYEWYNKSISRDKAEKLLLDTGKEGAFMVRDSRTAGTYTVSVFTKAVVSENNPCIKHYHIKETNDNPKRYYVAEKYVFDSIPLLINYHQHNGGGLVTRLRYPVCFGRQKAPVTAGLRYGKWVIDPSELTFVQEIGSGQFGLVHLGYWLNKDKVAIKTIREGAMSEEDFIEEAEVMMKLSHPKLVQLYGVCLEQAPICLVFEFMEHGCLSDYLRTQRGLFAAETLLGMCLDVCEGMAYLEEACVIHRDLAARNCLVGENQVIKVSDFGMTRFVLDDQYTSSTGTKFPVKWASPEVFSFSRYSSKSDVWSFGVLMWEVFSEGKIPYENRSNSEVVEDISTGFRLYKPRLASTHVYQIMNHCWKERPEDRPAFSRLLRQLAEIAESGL

IC50 [nM] | SMILES
3 | Cc1cc2[nH]c(-c3n[nH]c4c3C[C@@H]3C[C@]3(C)C4)nc2cc1N(C)C(=O)[C@H](C)C1CCOCC1 [Example 4, (R)—N-methyl-N-(6-methyl-2-((4aS,5aR)-5a-methyl-1,4,4a,5,5a,6-hexahydrocyclopropa[f]indazol-3-yl)-1H-benzo[d]imidazol-5-yl)-2-(tetrahydro-2H-pyran-4-yl)propanamide]
5 | Cc1cc2[nH]c(-c3n[nH]c4c3C[C@@H]3C[C@]3(C)C4)nc2cc1N(C)C(=O)C(C)C1CCOCC1 (stereo partly drawn) [Example 5, N-methyl-N-(6-methyl-2-((4aS,5aR)-5a-methyl-1,4,4a,5,5a,6-hexahydrocyclopropa[f]indazol-3-yl)-1H-benzo[d]imidazol-5-yl)-2-(tetrahydro-2H-pyran-4-yl)propanamide]
11 | CCN(C(=O)[C@H](C)N1CCOCC1)c1cc2nc(-c3n[nH]c4c3C[C@@H]3C[C@]3(C)C4)[nH]c2cc1C [Example 6, (S)—N-ethyl-N-(6-methyl-2-((4aS,5aR)-5a-methyl-1,4,4a,5,5a,6-hexahydrocyclopropa[f]indazol-3-yl)-1H-benzo[d]imidazol-5-yl)-2-morpholinopropanamide]
7 | CN(C(=O)CC1CCOCC1)c1ccc2[nH]c(-c3n[nH]c4c3C[C@@H]3C[C@]3(C)C4)nc2c1 [Example 10, N-methyl-N-(2-((4aS,5aR)-5a-methyl-1,4,4a,5,5a,6-hexahydrocyclopropa[f]indazol-3-yl)-1H-benzo[d]imidazol-5-yl)-2-(tetrahydro-2H-pyran-4-yl)acetamide]
3 | C[C@@H](C(=O)N(C)c1cc(F)c2[nH]c(-c3n[nH]c4c3C[C@@H]3C[C@]3(C)C4)nc2c1)C1CCOCC1 [Example 12, (R)—N-(7-fluoro-2-((4aS,5aR)-5a-methyl-1,4,4a,5,5a,6-hexahydrocyclopropa[f]indazol-3-yl)-1H-benzo[d]imidazol-5-yl)-N-methyl-2-(tetrahydro-2H-pyran-4-yl)propanamide]
1 | C[C@@H](C(=O)N(C)c1ccc2[nH]c(-c3n[nH]c4c3C[C@@H]3C(F)(F)[C@]3(C)C4)nc2c1)N1CCOCC1 [Example 13, (S)—N-(2-((4aS,5aR)-5,5-difluoro-5a-methyl-1,4,4a,5,5a,6-hexahydrocyclopropa[f]indazol-3-yl)-1H-benzo[d]imidazol-5-yl)-N-methyl-2-morpholinopropanamide]
3 | C[C@@H](C(=O)N(C)c1ccc2[nH]c(-c3n[nH]c4c3C[C@@H]3C[C@]3(C)C4)nc2c1)N1CCOCC1 [Example 14, (S)—N-methyl-N-(2-((4aS,5aR)-5a-methyl-1,4,4a,5,5a,6-hexahydrocyclopropa[f]indazol-3-yl)-1H-benzo[d]imidazol-5-yl)-2-morpholinopropanamide]
4 | C[C@@H](C(=O)N(C)c1cc(F)c2[nH]c(-c3n[nH]c4c3C[C@@H]3C[C@]3(C)C4)nc2c1)N1CCOCC1 [Example 15, (S)—N-(7-fluoro-2-((4aS,5aR)-5a-methyl-1,4,4a,5,5a,6-hexahydrocyclopropa[f]indazol-3-yl)-1H-benzo[d]imidazol-5-yl)-N-methyl-2-morpholinopropanamide]
5 | CCN(C(=O)[C@H](C)N1CCOCC1)c1cc(F)c2[nH]c(-c3n[nH]c4c3C[C@@H]3C[C@]3(C)C4)nc2c1 [Example 16, (S)—N-ethyl-N-(7-fluoro-2-((4aS,5aR)-5a-methyl-1,4,4a,5,5a,6-hexahydrocyclopropa[f]indazol-3-yl)-1H-benzo[d]imidazol-5-yl)-2-morpholinopropanamide]
5 | C[C@@H](C(=O)N(C)c1cc2nc(-c3n[nH]c4c3C[C@@H]3C[C@]3(C)C4)[nH]c2cc1F)N1CCOCC1 [Example 17, (S)—N-(6-fluoro-2-((4aS,5aR)-5a-methyl-1,4,4a,5,5a,6-hexahydrocyclopropa[f]indazol-3-yl)-1H-benzo[d]imidazol-5-yl)-N-methyl-2-morpholinopropanamide]
